Assay: wn = mass fraction of the nth substance listed
Conditions: Gas, Burnett expansion method

FCC(F)(F)F [1,1,1,2-tetrafluoroethane] + CCC
Conditions | mass density [kg/m3]
291.04 K, 382.5 kPa, w2 = 0.6 | 9.6512
291.04 K, 497.9 kPa, w2 = 0.6 | 12.8332
291.04 K, 818.1 kPa, w2 = 0.6 | 22.6914
291.06 K, 178.7 kPa, w2 = 0.65 | 4.1993
291.06 K, 235.4 kPa, w2 = 0.65 | 5.5839
291.06 K, 309.1 kPa, w2 = 0.65 | 7.425
291.06 K, 404.2 kPa, w2 = 0.65 | 9.8733
291.06 K, 525 kPa, w2 = 0.65 | 13.1287
291.06 K, 642.6 kPa, w2 = 0.6 | 17.0639
291.08 K, 675.9 kPa, w2 = 0.65 | 17.4564
291.99 K, 927 kPa, w2 = 0.5 | 28.4165
292 K, 732.8 kPa, w2 = 0.5 | 21.3324
292.01 K, 193.1 kPa, w2 = 0.5 | 5.0866
292.01 K, 254.3 kPa, w2 = 0.5 | 6.7756
292.01 K, 334.3 kPa, w2 = 0.5 | 9.02529
292.01 K, 437.9 kPa, w2 = 0.5 | 12.0223
292.01 K, 569.6 kPa, w2 = 0.5 | 16.0141
292.03 K, 202.8 kPa, w2 = 0.4 | 5.83306
292.03 K, 587.9 kPa, w2 = 0.4 | 18.3639
292.03 K, 753.1 kPa, w2 = 0.4 | 24.4617
292.03 K, 950.3 kPa, w2 = 0.4 | 32.5844
292.04 K, 266.5 kPa, w2 = 0.4 | 7.76977
292.04 K, 348.8 kPa, w2 = 0.4 | 10.3497
292.04 K, 454.4 kPa, w2 = 0.4 | 13.7862
292.1 K, 669.6 kPa, w2 = 0.45 | 20.2125
292.1 K, 852.9 kPa, w2 = 0.45 | 26.9241
292.11 K, 399.4 kPa, w2 = 0.45 | 11.3911
292.11 K, 519.4 kPa, w2 = 0.45 | 15.1737
292.12 K, 176.3 kPa, w2 = 0.45 | 4.81956
292.12 K, 232.3 kPa, w2 = 0.45 | 6.41979
292.12 K, 305.2 kPa, w2 = 0.45 | 8.55159
295.06 K, 496 kPa, w2 = 0.6 | 12.529
295.06 K, 537 kPa, w2 = 0.55 | 14.2738
295.06 K, 692.2 kPa, w2 = 0.55 | 18.98
295.06 K, 881.4 kPa, w2 = 0.55 | 25.2378
295.07 K, 315.8 kPa, w2 = 0.55 | 8.0723
295.07 K, 641.4 kPa, w2 = 0.6 | 16.6596
295.07 K, 820 kPa, w2 = 0.6 | 22.1527
295.08 K, 167 kPa, w2 = 0.6 | 4.0072
295.08 K, 220.6 kPa, w2 = 0.6 | 5.3286
295.08 K, 240.3 kPa, w2 = 0.55 | 6.0706
295.08 K, 380.5 kPa, w2 = 0.6 | 9.4217
295.08 K, 413.2 kPa, w2 = 0.55 | 10.7336
295.08 K, 929.7 kPa, w2 = 0.65 | 25.1362
295.09 K, 290.3 kPa, w2 = 0.6 | 7.0853
295.09 K, 571.2 kPa, w2 = 0.65 | 14.2158
295.09 K, 733.9 kPa, w2 = 0.65 | 18.9032
295.1 K, 440.4 kPa, w2 = 0.65 | 10.6904
295.11 K, 337.1 kPa, w2 = 0.65 | 8.0394
295.12 K, 195 kPa, w2 = 0.65 | 4.5466
295.12 K, 256.9 kPa, w2 = 0.65 | 6.0457
296.03 K, 914.3 kPa, w2 = 0.45 | 28.6491
296.04 K, 429.5 kPa, w2 = 0.45 | 12.1212
296.04 K, 558.2 kPa, w2 = 0.45 | 16.146
296.04 K, 718.9 kPa, w2 = 0.45 | 21.5073
296.05 K, 189.8 kPa, w2 = 0.45 | 5.12847
296.05 K, 250.1 kPa, w2 = 0.45 | 6.83136
296.05 K, 328.4 kPa, w2 = 0.45 | 9.09958
296.06 K, 874.4 kPa, w2 = 0.5 | 25.9625
296.07 K, 179.9 kPa, w2 = 0.5 | 4.64758
296.07 K, 236.8 kPa, w2 = 0.5 | 6.1908
296.07 K, 407 kPa, w2 = 0.5 | 10.9846
296.07 K, 529.9 kPa, w2 = 0.5 | 14.6321
296.07 K, 684.5 kPa, w2 = 0.5 | 19.4905
296.15 K, 854.3 kPa, w2 = 0.4 | 27.6875
296.15 K, 1071.2 kPa, w2 = 0.4 | 36.8808
296.16 K, 518.5 kPa, w2 = 0.4 | 15.6041
296.16 K, 669.4 kPa, w2 = 0.4 | 20.7854
296.17 K, 231.5 kPa, w2 = 0.4 | 6.60203
296.17 K, 304.4 kPa, w2 = 0.4 | 8.79413
296.17 K, 398.4 kPa, w2 = 0.4 | 11.7141
297.08 K, 311 kPa, w2 = 0.5 | 8.24631
299.03 K, 1039.9 kPa, w2 = 0.55 | 30.269
299.04 K, 190.4 kPa, w2 = 0.6 | 4.5212
299.04 K, 220.4 kPa, w2 = 0.55 | 5.4755
299.04 K, 251 kPa, w2 = 0.6 | 6.0118

— the NIST ThermoML archive (doi:10.1016/j.jct.2013.10.031)
